The text below walks through data of article PMC7615751, “Anionic liposome formulation for oral delivery of thuricin CD, a potential antimicrobial peptide therapeutic” (International journal of pharmaceutics, 2024).

The test system of data set [1] is L. monocytogenes ATCC 1916. As to the kind of experiment: Bioactivity of dissolved thuricin CD (MIC50, growth curves at OD 590 nm). Type of data set: cell-based. The note with it: 24 h, 37 °C.
Description: For this study, L. monocytogenes was used as an indicator strain. The minimum inhibitory concentration MIC50 was determined based on the protocol previously described by Mathur et al. ([Mathur, et al., 2017]). MIC50 was established as the concentration of peptides that inhibited 50 % of growth of L. monocytogenes ATCC 1916 ([Rea, 2010]).
Briefly, 1 mg/mL stock solutions of freeze-dried Trnα and Trnβ resuspended in 70 % IPA 0.1 % TFA in water were diluted in sterile PBS to a final concentration of 100 μg/mL (dissolved thuricin). For all the experiments in this, and the following sections, a 1:1 M ratio of Trn α: Trn β was used. The corresponding volumes of each peptide to reach 250 nM of each peptide (0.69 μg/mL Trn α + 0.72 μg/mL Trn β), 500 nM of each peptide (1.38 μg/mL Trn α + 1.43 μg/mL Trn β), 1 μM of each peptide (2.76 μg/mL Trn α + 2.86 μg/mL Trn β), and 2 μM of each peptide (5.53 μg/mL Trn α + 5.72 μg/mL Trn β) in the final well volume were added in triplicate to a 96 well plate. […] L. monocytogenes ATCC 1916 was grown in BHI broth shaking overnight at 37 °C. 150 μL of 10^5 CFU/mL bacterial culture was added to the wells with sample. Blanks were set up in triplicate with only PBS and media as well as a control containing buffer and bacterial culture. The plate was incubated in a Biotek ELx808 Ultra microplate reader at 37 °C for 24 h. Readings were taken every 30 min at 590 nm. […]
The target in data set [2] is T1, pepsin (Sus scrofa, UniProt P00791).
T1 construct: purchased Sigma Aldrich Ireland Ltd
The experiment in a line: Enzymatic degradation of dissolved thuricin CD by pepsin (residual antibacterial activity). The note with it: 5.6 μg/mL Trn α + 5.8 μg/mL Trn β. The class given is in vitro ADME. As to the method: Trn α and Trn β stock solutions (1 mg/mL in 70 % IPA 0.1 % TFA in water) were filter sterilized and diluted to a final concentration of 100 μg/mL in sterile PBS. Pepsin activity was evaluated beforehand according to the haemoglobin assay, based on the principle that haemoglobin in water produces tyrosine peptides soluble in trichloroacetic acid (TCA) when pepsin is applied ([Brodkorb, 2019]). The activity units (AU or μmol/min), defined as the quantity of the enzyme that converts one micromole of substrate per minute, were determined before this test. Pepsin was suspended in cold 0.01 M HCl pH 2 reaching 824 activity units per mL. Trn α and Trn β were added to the same well of a 96-well plate in triplicate to give a final concentration of 5.6 μg/mL and 5.8 μg/mL respectively. […] 25 μL of pepsin solution was also added to each of the wells. This gave a final pepsin concentration/activity of 1.2 mg/mL or 98.8 AU/mL, which is the approximate concentration of enzyme present in the human stomach ([Liu, 2015]). Thuricin alone and pepsin alone were included as control samples with the bacterial culture. Blanks were set up in triplicate with PBS, 0.01 M HCl, and media only (BHI). […] The plate was incubated in a BioTek ELx808 Ultra microplate reader at 37 °C for 24 h at a wavelength of 590 nm. Readings were taken every 30 min for 24 h with the plate shaken mildly before each reading.

The target in the next data set is T2, trypsin (Sus scrofa, UniProt P00761).
T2 construct: purchased Sigma Aldrich Ireland Ltd
The experiment in a line: Enzymatic degradation of dissolved thuricin CD by trypsin (residual antibacterial activity). Type of data set: in vitro ADME. The note with it: 4.4 μg/mL Trn α + 4.4 μg/mL Trn β; 19.3 μg/ml trypsin; 3 h, 37 °C; then growth curve 24 h, OD 590 nm; triplicate. The protocol: (§1) Trn α and Trn β stock solutions (1 mg/mL in 70 % IPA 0.1 % TFA in water) were filter sterilized and diluted to a final concentration of 100 μg/mL in sterile PBS. Pepsin activity was evaluated beforehand according to the haemoglobin assay, based on the principle that haemoglobin in water produces tyrosine peptides soluble in trichloroacetic acid (TCA) when pepsin is applied ([Brodkorb, 2019]). The activity units (AU or μmol/min), defined as the quantity of the enzyme that converts one micromole of substrate per minute, were determined before this test. Pepsin was suspended in cold 0.01 M HCl pH 2 reaching 824 activity units per mL. Trn α and Trn β were added to the same well of a 96-well plate in triplicate to give a final concentration of 5.6 μg/mL and 5.8 μg/mL respectively. […] The plate was incubated in a BioTek ELx808 Ultra microplate reader at 37 °C for 24 h at a wavelength of 590 nm. Readings were taken every 30 min for 24 h with the plate shaken mildly before each reading.
(§2) A similar procedure was followed for trypsin and chymotrypsin, but different concentrations were used, and incubation time was 3 h. […] Trypsin activity units were determined by a previously established assay based on the principle that p-toluene-sulfonyl-l-arginine methyl ester (TAME) in water produces p-toluene-sulfonyl-L-arginine plus methanol when trypsin is applied ([Brodkorb, 2019]). […]

In a further data set the target is T3, α-chymotrypsin (Bos taurus, UniProt P00766).
T3 construct: purchased Sigma Aldrich Ireland Ltd
As to the kind of experiment: Enzymatic degradation of dissolved thuricin CD by α-chymotrypsin (residual antibacterial activity). The class given is in vitro ADME. The note with it: 4.4 μg/mL Trn α + 4.4 μg/mL Trn β; 19.3 μg/ml α-chymotrypsin; 3 h, 37 °C; then growth curve 24 h, OD 590 nm; triplicate. As to the method: as §1, §2

The subject of data set [3] is L. monocytogenes ATCC 1916. As to the kind of experiment: Solution behaviour / activity of free thuricin CD in FaSSIF without enzymes. Type of data set: cell-based. The note with it: free thuricin suspended from solid in FaSSIF pH 6.5, 37 °C, 0.2 μm filtered, growth curve 24 h, triplicate. The protocol: (§3) Fasted state simulated intestinal fluid (FaSSIF) and fasted state simulated gastric fluid (FaSSGF) were prepared using Biorelevant FaS-SIF/FaSSGF powder following the manufacturer’s instructions. Briefly, for FaSSIF, 0.21 g NaOH, 1.72 g sodium phosphate monobasic and 3.10 g NaCl were diluted in 400 mL distilled water. The solution was stirred until dissolved. The pH was then adjusted to 6.5 with 0.1 M HCl. 1.12 g FaSSIF powder was added and finally, the volume was topped up to 500 mL. For FaSSGF, 2 g NaCl was dissolved in 900 mL distilled water. The pH was adjusted to 1.6 with 1 M HCl.
Trn α and Trn β solutions at concentrations of 0.5 mg/mL in FaSSGF/FaSSIF were suspended directly from lyophilised powder (free thuricin). Further dilutions were carried out to reach concentrations of 2 times, 5 times and 10 times the MIC50 in the final volume to be used for the experiment. The suspensions were distributed in different microtubes and incubated at 37 °C, 300 rpm in an incubator for 0.5 h. An aliquot of each concentration was taken, and filter sterilized with a 0.2 μm PES filter. 50 μL of each sterile solution was transferred to a 96-well microtiter plate in triplicate. Each well was filled with 150 μL of a L. monocytogenes culture at an OD of 0.1. A control was set with 50 μL of FaSSGF/FaSSIF and 150 μL culture. The plate was incubated in a Biotek ELx808 Ultra microplate reader at 37 °C for 24 h at a wavelength of 590 nm. Readings were taken every 30 min for 24 h with the plate shaken mildly before each one. The readings collected from those samples were considered as time 0. In the meantime, the microtubes were put back in the incubator with reduced shaking. After 1, 4 and 24 h a new aliquot was taken, and the same protocol was followed for activity testing.

Data set [4] deals with L. monocytogenes ATCC 1916. The experiment in a line: Solution behaviour / activity of free thuricin CD in FaSSGF without enzymes. Type of data set: cell-based. As to the method: as §3
Trn α and Trn β solutions at concentrations of 0.5 mg/mL in FaSSGF/FaSSIF were suspended directly from lyophilised powder (free thuricin). Further dilutions were carried out to reach concentrations of 2 times, 5 times and 10 times the MIC50 in the final volume to be used for the experiment. The suspensions were distributed in different microtubes and incubated at 37 °C, 300 rpm in an incubator for 0.5 h. An aliquot of each concentration was taken, and filter sterilized with a 0.2 μm PES filter. […] The plate was incubated in a Biotek ELx808 Ultra microplate reader at 37 °C for 24 h at a wavelength of 590 nm. Readings were taken every 30 min for 24 h with the plate shaken mildly before each one. The readings collected from those samples were considered as time 0. […]

In data set [5] the test system is L. monocytogenes ATCC 1916. As to the kind of experiment: Biological activity of Trn αβ loaded liposomes vs free thuricin CD in acetate buffer. The class given is cell-based. The note with it: 1.25 and 2.50 μg/mL of each peptide, 37 °C, 24 h, OD 590 nm, triplicate. As to the method:
The activity of Trn αβ liposomes was evaluated following the methodology previously described for thuricin CD. Briefly, the liposome suspension was filtered with a 0.45 μm PES sterile filter. Different volumes of the sterile liposome suspension were added to reach final concentrations of Trn α and Trn β of 1.25 and 2.50 μg/mL in each well. Samples were tested in triplicate. […] 150 μL of 10^5 CFU/mL L. monocytogenes ATCC 1916 culture was added to the wells with sample. Blanks were set up in triplicate with only media, the corresponding blank liposome suspension volume, and PBS. Controls contained inoculated media and PBS. The plate was incubated in a BioTek ELx808 Ultra microplate reader at 37 °C for 24 h. Readings were taken every 30 min at 590 nm. The same procedure was followed for free thuricin (freeze dried thuricin powder directly suspended in acetate buffer).

The target of data set [6] is T1, pepsin. As to the kind of experiment: Biological activity after incubation in FaSSGF with pepsin. The note with it: dissolved Trn α and β, 1.2 mg/mL pepsin in FaSSGF, 30 min, 37 °C; double the MIC50; L. monocytogenes growth curve 24 h. The class given is in vitro ADME. As to the method: The activity of αβ liposome suspension and dissolved αβ peptides after exposing both to FaSSGF with pepsin and FaSSIF without pancreatin was analysed. No pancreatin was added to FaSSIF because it inhibitied L. monocytogenes growth itself. Trn αβ loaded liposome suspension or dissolved thuricin (thuricin powder in 70 % IPA 0.1 % TFA in water and further diluted in acetate buffer) + pepsin in FaSSGF were prepared as described in the previous section. Control samples with acetate buffer + pepsin in FaSSGF were also prepared.
After 30 min incubation, pepsin was deactivated by heating the samples at 70 °C for 10 min. The volume necessary to reach a concentration of double the MIC50 of thuricin peptides was added to a 96-well plate. The wells were topped to 50 μL with PBS. 150 μL of 10^5 CFU/mL bacterial cell culture (L. monocytogenes) was added to each well. Blanks were set with media and control samples. The plate was incubated in a BioTek ELx808 Ultra microplate reader at 37 °C for 24 h at a wavelength of 590 nm. Readings were taken every 30 min for 24 h with the plate shaken mildly before each reading.

In the next data set the test system is Caco-2 cells. As to the kind of experiment: Presto blue cytotoxicity assay. The note with it: 5 μg/mL Trn α + 5 μg/mL Trn β, 24 h, 37 °C, absorbance 570 nm. The class given is cell-based. The protocol: The biocompatibility of Trn αβ liposome suspension and dissolved thuricin CD with intestinal epithelial cells were tested. Caco-2 cells were grown in high glucose Dulbecco’s modified Eagle’s medium supplemented with 10 % fetal bovine serum, 1 % L-Glutamine, 1 % pen-strep, and 1 % non-essential amino acids at 37 °C, with 5 % CO2 and 95 % relative humidity. Approximately 10,000 cells were seeded per well in a 96-well plate. The plate was incubated overnight to ensure the cells adhered to the wells. The media was removed from the wells and filter-sterilized dissolved thuricin CD and Trn αβ liposome suspension samples at a final concentration of 5 μg/mL of each peptide were added 1:1 (v/v) with fresh media. Control wells were included by adding blank liposomes and just media to the cells. The plate was incubated for 24 h at 37 °C, with 5 % CO2 and 95 % relative humidity. The media was removed from the wells, 10 μL Presto blue +90 μL fresh media was added to each well and left incubating for 60 min. Finally, the absorbances of the solutions in the plate were read at 570 nm and plotted for all samples.

For data set [7] the following is noted: cell-free supernatants; ref Rea, 2010; cited from earlier work. An excerpt: However, because of their peptide nature, bacteriocins are susceptible to degradation, aggregation, and precipitation in the body, and can show low solubility and poor permeability ([Flynn et al., 2021]). Previous reports have evaluated the heat and pH stability of thuricin CD cell-free supernatants. […] Activity was also maintained in a pH range of 2 to 9 ([Rea, 2010]). Neither quantitative nor qualitative data on the solubility of thuricin in biorel ...

For data set [8] the following is noted: FaSSIF vs PBS; ref Ryan et al., 2021; cited from earlier work. The text has this: The pH in FaSSIF is 6.5, and the pI of Trn α and Trn β is close to 4, so the thuricin CD peptides should both be slightly negatively charged in this solution (ExPASy, 2022), helping their dissolution in this medium. Also, it has been previously reported that lacticin 3147, a two peptide bacteriocin with similar ...

T1 sequence (P00791 60-385): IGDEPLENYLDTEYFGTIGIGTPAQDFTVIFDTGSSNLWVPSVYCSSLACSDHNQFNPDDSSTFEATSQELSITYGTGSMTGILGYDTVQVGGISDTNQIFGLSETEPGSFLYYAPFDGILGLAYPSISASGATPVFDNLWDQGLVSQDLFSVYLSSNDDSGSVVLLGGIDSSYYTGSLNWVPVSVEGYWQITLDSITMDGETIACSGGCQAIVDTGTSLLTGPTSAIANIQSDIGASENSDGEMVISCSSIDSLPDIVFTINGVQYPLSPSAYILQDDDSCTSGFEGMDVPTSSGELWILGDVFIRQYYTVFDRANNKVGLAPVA
T2 sequence (P00761 9-231): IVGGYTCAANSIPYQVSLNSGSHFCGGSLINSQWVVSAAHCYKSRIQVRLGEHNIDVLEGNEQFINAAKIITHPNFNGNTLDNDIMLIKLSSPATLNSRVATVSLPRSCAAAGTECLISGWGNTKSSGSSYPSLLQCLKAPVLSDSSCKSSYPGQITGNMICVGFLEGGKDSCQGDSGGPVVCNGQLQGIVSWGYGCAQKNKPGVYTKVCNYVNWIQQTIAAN

Regarding thuricin CD, in data set [1] (0.25 μM of each peptide), the “effect on bacterial growth” value is “could not significantly inhibit bacterial growth”. Moreover, the “inhibition of bacterial growth” value in data set [1] (0.5 μM of each peptide, 1:1 M ratio) was “approximately 50%”. Also, the “activity against L. monocytogenes ATCC 1916 after exposure to pepsin” value on pepsin [2] (pepsin 1.2 mg/mL (98.8 AU/mL), 0.01 M HCl pH 2/PBS, 1.5 h, 37 °C, 70 rpm, then growth curve 24 h, OD 590 nm, triplicate) is recorded as “deactivated”. In addition, on pepsin [2] (positive control without pepsin, incubated 1.5 h at 37 °C before culture, growth curve 24 h), the “time for which bacterial growth was inhibited, thuricin alone (no enzyme)” value is given as approximately 17 h. Moreover, the “activity against L. monocytogenes ATCC 1916 after exposure to trypsin” value on trypsin was “retained its activity”. In addition, the “activity against L. monocytogenes ATCC 1916 after exposure to α-chymotrypsin” value at α-chymotrypsin is “growth comparable to the control”. Also, in data set [3] (all time points 0–24 h), the “activity after addition of lyophilised powder to FaSSIF, five times the MIC50” value is “activity is observed” and the “activity after addition of lyophilised powder to FaSSIF, ten times the MIC50” value is reported as “activity is observed”. The “activity after addition of lyophilised powder to FaSSIF, double the MIC50” value in data set [3] (time points 0, 1, 4, 24 h) is “no activity is observed”. The “activity of peptides pre-dissolved in 70 % IPA 0.1 % TFA in water and diluted in FaSSGF” value in [4] (2, 5 and 10 times the MIC50, 1:1 molar ratio, FaSSGF pH 1.6 (Figure S3)) is listed as “retained thuricin CD activity”. The “activity after addition of lyophilised powder to FaSSGF” value in [4] (free thuricin suspended from solid in FaSSGF pH 1.6, 37 °C, x2, x5, x10 MIC50, 0, 1, 4, 24 h, 0.2 μm filtered, growth curve 24 h, triplicate) is on record as “no activity was detected”. Further, the “activity of lyophilised peptides directly suspended in acetate buffer” value in data set [5] is recorded as “do not demonstrate any activity”. The “activity after exposure to pepsin in FaSSGF” value on pepsin [6] is “completely lost activity”. In addition, the “cytotoxicity: absorbance compared to the control group of living cells” value with Caco-2 cells is given as “none of the samples exhibited any significant difference in absorbance”. In data set [7], the “heat stability at 85 °C” value is “stable”, the “heat stability at 90 °C” value is given as “reducing its activity” and the “heat stability at 100 °C” value is “complete activity loss”.
For lacticin 3147, the “solubility in FaSSIF” value in [8] is reported as “improved solubility in FaSSIF compared to PBS”.
